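Briefly, cells in 96-well plates were exposed to five compound concentrations for 48 h, and endpoints were estimated by linear interpolation. GI50 marks 50% less growth.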 Calls of active or inactive are those of the source. No stated cut-off is given here; in the data, active = GI50 up to about 1.1 µM and inactive = higher.
Experiments:
Experiment in all cases: NCI anticancer screen, dose series, 48 h
CAKI-1 = test system: CAKI-1
SK-OV-3 = test system: SK-OV-3
UACC-62 = test system: UACC-62
HT-29 = test system: HT-29
KM12 = test system: KM12
MDA-MB-435 = test system: MDA-MB-435
RPMI-8226 = test system: RPMI-8226
SF-539 = test system: SF-539
PC-3 = test system: PC-3
OVCAR-5 = test system: OVCAR-5
IGROV-1 = test system: IGROV-1
BT-549 = test system: BT-549
MOLT-4 = test system: MOLT-4
SK-MEL-28 = test system: SK-MEL-28
OVCAR-4 = test system: OVCAR-4
EKVX = test system: EKVX
K562 = test system: K562
MDA-N = test system: MDA-N
UACC-257 = test system: UACC-257
NCI-H460 = test system: NCI-H460
OVCAR-3 = test system: OVCAR-3
NCI-H522 = test system: NCI-H522
DU-145 = test system: DU-145
SR = test system: SR
SK-MEL-5 = test system: SK-MEL-5
786-0 = test system: 786-0
T47D = test system: T47D
SW-620 = test system: SW-620
M14 = test system: M14
MCF7 = test system: MCF7
MDA-MB-231 = test system: MDA-MB-231
OVCAR-8 = test system: OVCAR-8
HCC 2998 = test system: HCC 2998
Hs-578T = test system: Hs-578T
HCT-116 = test system: HCT-116
ACHN = test system: ACHN
Malme-3M = test system: Malme-3M
SNB-19 = test system: SNB-19
HOP-92 = test system: HOP-92
RXF 393 = test system: RXF 393
UO-31 = test system: UO-31
NCI-H23 = test system: NCI-H23
HCT-15 = test system: HCT-15
U-251 = test system: U-251
HL-60 = test system: HL-60
HOP-62 = test system: HOP-62
SF-268 = test system: SF-268
SNB-75 = test system: SNB-75
CCRF-CEM = test system: CCRF-CEM
NCI/ADR-RES = test system: NCI/ADR-RES
TK-10 = test system: TK-10
COLO 205 = test system: COLO 205
LOX IMVI = test system: LOX IMVI
A498 = test system: A498
NCI-H226 = test system: NCI-H226
SK-MEL-2 = test system: SK-MEL-2
A549 = test system: A549
SF-295 = test system: SF-295
SN12C = test system: SN12C

For `Cc1ccc(C2=CC(=O)/C(=C\C(=O)c3ccc(Cl)cc3)O2)cc1`, the GI50 (CAKI-1) was 2.3 µM (inactive), the GI50 (SK-OV-3) was 6.43 µM (inactive) and the GI50 (UACC-62) was 11.6 µM (inactive). The GI50 (HT-29) was 4.14 µM (inactive), the GI50 (KM12) was 22.8 µM (inactive) and the GI50 (MDA-MB-435) was 18 µM (inactive). For the same compound, the GI50 (RPMI-8226) was 2.08 µM (inactive), the GI50 (SF-539) was 21.2 µM (inactive) and the GI50 (PC-3) was 2.43 µM (inactive). For the same compound, the GI50 (OVCAR-5) was 21.1 µM (inactive), the GI50 (IGROV-1) was 16.2 µM (inactive) and the GI50 (BT-549) was 1.86 µM (inactive). For the same compound, the GI50 (MOLT-4) was 3.94 µM (inactive), the GI50 (SK-MEL-28) was 16.9 µM (inactive) and the GI50 (OVCAR-4) was 15.9 µM (inactive). For the same compound, the GI50 (EKVX) was 70 µM (inactive), the GI50 (K562) was 4.15 µM (inactive) and the GI50 (MDA-N) was 3.2 µM (inactive). For the same compound, the GI50 (UACC-257) was 0.1 µM (active), the GI50 (NCI-H460) was > 10 µM (inactive) and the GI50 (OVCAR-3) was 4.7 µM (inactive). For the same compound, the GI50 (NCI-H522) was 1.97 µM (inactive), the GI50 (DU-145) was 32.6 µM (inactive) and the GI50 (SR) was 1.42 µM (inactive). For the same compound, the GI50 (SK-MEL-5) was 14.5 µM (inactive), the GI50 (786-0) was 9.95 µM (inactive) and the GI50 (T47D) was 7.18 µM (inactive). For the same compound, the GI50 (SW-620) was 2.39 µM (inactive), the GI50 (M14) was 18.3 µM (inactive) and the GI50 (MCF7) was 10.6 µM (inactive). For the same compound, the GI50 (MDA-MB-231) was 12.1 µM (inactive), the GI50 (OVCAR-8) was 3.13 µM (inactive) and the GI50 (HCC 2998) was 27.4 µM (inactive). The GI50 (Hs-578T) was 23.9 µM (inactive), the GI50 (HCT-116) was 14.3 µM (inactive) and the GI50 (ACHN) was 5.09 µM (inactive). The GI50 (Malme-3M) was 17.2 µM (inactive), the GI50 (SNB-19) was 49.2 µM (inactive) and the GI50 (HOP-92) was 14.1 µM (inactive). The GI50 (RXF 393) was 4.6 µM (inactive), the GI50 (UO-31) was 9.51 µM (inactive) and the GI50 (NCI-H23) was 24.2 µM (inactive). For the same compound, the GI50 (HCT-15) was 17.7 µM, the GI50 (U-251) was 17.7 µM (inactive) and the GI50 (HL-60) was 0.902 µM (active). For the same compound, the GI50 (HOP-62) was 97.9 µM (inactive), the GI50 (SF-268) was 17.1 µM (inactive) and the GI50 (SNB-75) was 35.8 µM (inactive). For the same compound, the GI50 (CCRF-CEM) was 3.19 µM (inactive), the GI50 (NCI/ADR-RES) was 15.5 µM (inactive) and the GI50 (TK-10) was 3.23 µM (inactive). The GI50 (COLO 205) was 13.3 µM (inactive), the GI50 (LOX IMVI) was 1.43 µM (inactive) and the GI50 (A498) was 27.2 µM (inactive). For the same compound, the GI50 (NCI-H226) was 17.2 µM (inactive).

`CCN(CC(O)COc1ccc2c(c1)[n+]([O-])nc(N)[n+]2[O-])C(C)=O` (stereo not given) was tested, and the GI50 (CAKI-1) was > 100 µM (inactive), the GI50 (SK-MEL-2) was > 100 µM (inactive) and the GI50 (SK-OV-3) was > 100 µM (inactive). For the same compound, the GI50 (UACC-62) was 49.7 µM (inactive), the GI50 (HT-29) was > 100 µM (inactive) and the GI50 (KM12) was > 100 µM (inactive). For the same compound, the GI50 (MDA-MB-435) was > 100 µM (inactive), the GI50 (RPMI-8226) was > 100 µM (inactive) and the GI50 (SF-539) was > 100 µM (inactive). For the same compound, the GI50 (PC-3) was > 100 µM (inactive), the GI50 (OVCAR-5) was > 100 µM (inactive) and the GI50 (A549) was > 100 µM (inactive). For the same compound, the GI50 (IGROV-1) was > 100 µM (inactive), the GI50 (BT-549) was > 100 µM (inactive) and the GI50 (MOLT-4) was 39 µM (inactive). The GI50 (SK-MEL-28) was > 100 µM (inactive), the GI50 (OVCAR-4) was 86.5 µM (inactive) and the GI50 (EKVX) was > 100 µM (inactive). The GI50 (K562) was 79.6 µM (inactive), the GI50 (MDA-N) was > 100 µM (inactive) and the GI50 (UACC-257) was > 100 µM (inactive). The GI50 (NCI-H460) was > 100 µM (inactive), the GI50 (OVCAR-3) was > 100 µM (inactive) and the GI50 (NCI-H522) was 31.1 µM (inactive). The GI50 (DU-145) was > 100 µM (inactive), the GI50 (SR) was > 100 µM (inactive) and the GI50 (SK-MEL-5) was 79.1 µM (inactive). The GI50 (SF-295) was > 100 µM (inactive), the GI50 (786-0) was > 100 µM (inactive) and the GI50 (T47D) was 20.2 µM (inactive). For the same compound, the GI50 (SW-620) was > 100 µM (inactive), the GI50 (M14) was > 100 µM (inactive) and the GI50 (MCF7) was 91 µM (inactive). The GI50 (MDA-MB-231) was > 100 µM (inactive), the GI50 (OVCAR-8) was 59.3 µM (inactive) and the GI50 (Hs-578T) was 63 µM (inactive). For the same compound, the GI50 (HCT-116) was 97.9 µM (inactive), the GI50 (ACHN) was > 100 µM (inactive) and the GI50 (SNB-19) was > 100 µM (inactive). For the same compound, the GI50 (UO-31) was > 100 µM (inactive), the GI50 (NCI-H23) was 91.2 µM (inactive) and the GI50 (HCT-15) was > 100 µM. The GI50 (U-251) was > 100 µM (inactive), the GI50 (SN12C) was > 100 µM (inactive) and the GI50 (HL-60) was > 100 µM (inactive). The GI50 (HOP-62) was > 100 µM (inactive), the GI50 (SF-268) was 80.5 µM (inactive) and the GI50 (SNB-75) was 38.9 µM (inactive). For the same compound, the GI50 (CCRF-CEM) was 72.4 µM (inactive), the GI50 (NCI/ADR-RES) was > 100 µM (inactive) and the GI50 (TK-10) was > 100 µM (inactive). For the same compound, the GI50 (COLO 205) was 3.7 µM (inactive), the GI50 (LOX IMVI) was 76.6 µM (inactive) and the GI50 (A498) was 62.1 µM (inactive). For the same compound, the GI50 (NCI-H226) was > 100 µM (inactive).

For `FC(F)(F)c1ccc2c(c1)nc(Cc1ccc(Cl)cc1)n2CC1CCCN2CCCCC12` (stereo not given), the GI50 (CAKI-1) was 14.8 µM (inactive), the GI50 (SK-MEL-2) was 13.6 µM (inactive) and the GI50 (SK-OV-3) was 11.9 µM (inactive). The GI50 (UACC-62) was 2.89 µM (inactive), the GI50 (HT-29) was 2.81 µM (inactive) and the GI50 (KM12) was 5.02 µM (inactive). The GI50 (MDA-MB-435) was 6.27 µM (inactive), the GI50 (PC-3) was 8.65 µM (inactive) and the GI50 (OVCAR-5) was 12.5 µM (inactive). For the same compound, the GI50 (A549) was 12.6 µM (inactive), the GI50 (IGROV-1) was 10.4 µM (inactive) and the GI50 (BT-549) was 11.5 µM (inactive). For the same compound, the GI50 (MOLT-4) was 3.18 µM (inactive), the GI50 (SK-MEL-28) was 2.52 µM (inactive) and the GI50 (OVCAR-4) was 12.2 µM (inactive). The GI50 (EKVX) was 11.1 µM (inactive), the GI50 (K562) was 4.18 µM (inactive) and the GI50 (MDA-N) was 1.52 µM (inactive). For the same compound, the GI50 (UACC-257) was 2.92 µM (inactive), the GI50 (NCI-H460) was 7.66 µM (inactive) and the GI50 (OVCAR-3) was 3.8 µM (inactive). The GI50 (NCI-H522) was 4.37 µM (inactive), the GI50 (DU-145) was 10 µM (inactive) and the GI50 (SR) was 2.29 µM (inactive). For the same compound, the GI50 (SK-MEL-5) was 3.89 µM (inactive), the GI50 (SF-295) was 10.5 µM (inactive) and the GI50 (786-0) was 7.67 µM (inactive). For the same compound, the GI50 (T47D) was 6.61 µM (inactive), the GI50 (SW-620) was 13.2 µM (inactive) and the GI50 (M14) was 2.07 µM (inactive). For the same compound, the GI50 (MCF7) was 10.2 µM (inactive), the GI50 (MDA-MB-231) was 3.27 µM (inactive) and the GI50 (OVCAR-8) was 11.3 µM (inactive). The GI50 (HCC 2998) was 2.11 µM (inactive), the GI50 (Hs-578T) was 1.19 µM (inactive) and the GI50 (HCT-116) was 6.35 µM (inactive). For the same compound, the GI50 (ACHN) was 11.5 µM (inactive), the GI50 (Malme-3M) was 1.73 µM (inactive) and the GI50 (SNB-19) was 14 µM (inactive). For the same compound, the GI50 (HOP-92) was 7.67 µM (inactive), the GI50 (RXF 393) was 10.3 µM (inactive) and the GI50 (UO-31) was 0.0194 µM (active). The GI50 (HCT-15) was 8.69 µM, the GI50 (U-251) was 8.24 µM (inactive) and the GI50 (SN12C) was 9.79 µM (inactive). The GI50 (HL-60) was 2.23 µM (inactive), the GI50 (HOP-62) was 14.1 µM (inactive) and the GI50 (SF-268) was 5.07 µM (inactive). The GI50 (SNB-75) was 1.59 µM (inactive), the GI50 (NCI/ADR-RES) was 8.18 µM (inactive) and the GI50 (TK-10) was 12.2 µM (inactive). For the same compound, the GI50 (COLO 205) was 3.96 µM (inactive), the GI50 (LOX IMVI) was 2.15 µM (inactive) and the GI50 (A498) was 14.2 µM (inactive). For the same compound, the GI50 (NCI-H226) was 11.9 µM (inactive).

Source: ChEMBL document CHEMBL1201862, “PubChem BioAssay data set” (2004)
